# From patent US7208314B2, “Compositions and methods for drug delivery using pH sensitive molecules” (priority 2002, dated 2007)
# Read-outs that look alike come from different tables or passages of the source. Peptide text beside a SMILES is read from it. * marks the point of attachment. X1 = C/C(C(=O)O)=C(\C)C(=O)*
# Assays:
# [1] = system: 3T3 mouse embryonic fibroblast cells; experiment: In vitro transfection with DNA-PLL-KL3 and dimethylmaleamic KL3, luciferase expression; format: cell-based
# Procedure: To a complex of plasmid DNA pCIluc (10 μg/mL, 0.075 mM in phosphate, 2.6 μg/μL pCIluc; prepared according to Danko, I., Williams, P., Herweijer, H. Zhang, G., Latendresse, J. S., Bock, I., Wolff, J. A. Hum. Mol. Genetics 1997, 6, 1435.) and poly-L-lysine (40 μg/mL) in 0.5 mL of 5 mM HEPES pH 7.5 was added succinylated poly-L-lysine (34,000 MW, Aldrich Chemical), 2,3-dimethylmaleamic melittin and 2,3-dimethylmaleamic KL3. The DNA-poly-L-lysine-2,3-dimethylmaleamic peptide complexes were then added (200 μL) to wells containing 3T3 mouse embryonic fibroblast cells in 290 mM glucose and 5 mM HEPES buffer pH 7.5. After 1.5 h, the glucose media was replaced with Dubelco's modified Eagle Media and the cells were allowed to incubate for 48 h. The cells were then harvested and then assayed for luciferase expression as previously reported (Wolff, J. A., Malone, R. W., Williams, P., Chong, W., Acsadi, G., Jani, A. and Felgner, P. L. Direct gene transfer into mouse muscle in vivo. Science, 1465–1468, 1990.). A Lumat LB 9507 (EG&G Berthold, Bad-Wildbad, Germany) luminometer was used. The amount of transfection was reported in relative light units and is the average transfection for two separate wells of cells.
# [2] = system: 3T3 mouse embryonic fibroblast cells; experiment: In vitro transfection with DNA-PLL complexes with dimethylmaleamic KL3 and dimethylmaleamic KL3-PLL; format: cell-based; conditions: pCIluc DNA/poly-L-lysine complex plus 10 mg modified peptide; opti-MEM 4 h; 48 h
# Procedure: To a complex of plasmid DNA pCIluc (10 μg/mL, prepared according to Danko, I., Williams, P., Herweijer, H. Zhang, G., Latendresse, J. S., Bock, I., Wolff, J. A. Hum. Mol. Genetics 1997, 6, 1435.) and poly-L-lysine (40 μg/mL) in 0.5 mL water was added 10 mg of 2,3-dimethylmaleamic -KL3-PLL or 2,3-dimethylmaleamic -KL3. The DNA-poly-L-lysine-2,3-dimethylmaleamic peptide complexes were then added (200 μL) to a well containing 3T3 mouse embryonic fibroblast cells in opti-MEM. After 4 h, the media was replaced with 90% Dubelco's modified Eagle Media and 10% fetal bovine serum the cells were then allowed to incubate for 48 h. The cells were then harvested and then assayed for luciferase expression as previously reported (Wolff, J. A., Malone, R. W., Williams, P., Chong, W., Acsadi, G., Jani, A. and Felgner, P. L. Direct gene transfer into mouse muscle in vivo. Science, 1465–1468, 1990.). A Lumat LB 9507 (EG&G Berthold, Bad-Wildbad, Germany) luminometer was used. The amount of transfection was reported in relative light units and is the average transfection for two separate wells of cells.
# [3] = Kinetics of conversion of dimethylmaleamic modified amines to amines at pH 5 (trinitrobenzenesulfonate); format: physicochemical; conditions: 40 mM sodium acetate buffer pH 5 and 1 mM cetyltrimetylammonium bromide
# Procedure: Dimethyl maleamic modified poly-L-lysine (10 mg/mL) was incubated in 10 mM sodium acetate buffer pH 5. At various times, aliquots (10 μg) were removed and added to 0.5 mL of 100 mM borax solution containing 0.4 mM trinitrobenzenesulfonate. A half an hour later, the absorbance of the solution at 420 nm was measured. To determine the concentration of amines at each time point, the extinction coefficient was determine for the product of trinitrobenzenesulfonate and poly-L-lysine. Using this extinction coefficient we were able to calculate the amount of amines and maleamic groups at each time point. A plot of ln (At/A0) as a function of time was a straight line whose slope is the negative of the rate constant for the conversion of maleamic acid to amine and anhydride, where At is the concentration of maleamic acid at a time t and A0 is the initial concentration of maleamic acid. For two separate experiments we calculated rate constants of […] which correspond to half lives of roughly 10 and 4 minutes respectively.
# Dimethyl maleamic modified KL3 (0.1 mg/mL) was incubated in 40 mM sodium acetate buffer pH 5 and 1 mM cetyltrimetylammonium bromide. At various times, aliquots (10 μg) were removed and added to 0.05 mL of 1 M borax solution containing 4 mM trinitrobenzenesulfonate. A half an hour later, the absorbance of the solution at 420 nm was measured. […]
# [4] = Hemolysis assay: melittin or KL3 blocked by anionic polymer or dimethylmaleic anhydride; format: cell-based; conditions: pH 7.5, read-out: Percent hemolysis
# Procedure: The membrane-disruptive activity of the peptide melittin and subsequent blocking of activity by anionic polymers was measured using a red blood cell (RBC) hemolysis assay. RBCs were harvested by centrifuging whole blood for 4 min. They were washed three times with 100 mM dibasic sodium phosphate at the desired pH, and resuspended in the same buffer to yield the initial volume. They were diluted 10 times in the same buffer, and 200 uL of this suspension was used for each tube. This yields 10 ? 8 RBCs per tube. Each tube contained 800 uL of buffer, 200 uL of the RBC suspension, and the peptide with or without polymer. Each sample was then repeated to verify reproducibility. The tubes were incubated for 30 minutes in a 37 C water bath. They were spun for 5 min at full speed in the microcentifuge. Lysis was determined by measuring the absorbance of the supernatant at 541 nm, reflecting the amount of hemoglobin that had been released into the supernatant. Percent hemolysis was calculated assuming 100% lysis to be measured by the hemoglobin released by the red blood cells in water; controls of RBCs in buffer with no peptide were also run.
smiles,measurement,setting,value
"C/C(C(=O)O)=C(\C)C(=O)NCCCC[C@H](NC(=O)/C(C)=C(/C)C(=O)O)C(=O)N[C@@H](CC(C)C)C(=O)N[C@@H](CC(C)C)C(=O)N[C@@H](CCCCNC(=O)/C(C)=C(/C)C(=O)O)C(=O)N[C@@H](CC(C)C)C(=O)N[C@@H](CC(C)C)C(=O)N[C@@H](CC(C)C)C(=O)N[C@@H](CCCCNC(=O)/C(C)=C(/C)C(=O)O)C(=O)N[C@@H](CC(C)C)C(=O)N[C@@H](Cc1c[nH]c2ccccc12)C(=O)N[C@@H](CC(C)C)C(=O)N[C@@H](CCCCNC(=O)/C(C)=C(/C)C(=O)O)C(=O)N[C@@H](CC(C)C)C(=O)N[C@@H](CC(C)C)C(=O)N[C@@H](CCCCNC(=O)/C(C)=C(/C)C(=O)O)C(=O)N[C@@H](CC(C)C)C(=O)N[C@@H](CC(C)C)C(=O)N[C@@H](CC(C)C)C(=O)N[C@@H](CCCCNC(=O)/C(C)=C(/C)C(=O)O)C(=O)N[C@@H](CC(C)C)C(=O)N[C@@H](CC(C)C)C(=O)O [2,3-dimethylmaleamic KL3] (X1-K(X1)LLK(X1)LLLK(X1)LWLK(X1)LLK(X1)LLLK(X1)LL-OH; N-terminus and C-terminus assumed)",Relative Light Units (luciferase expression),"[1]; pCIluc DNA/poly-L-lysine complex plus named additive, 48 h, average of two wells",49535 Relative Light Units
same,Relative Light Units relative to Succinylated poly-L-lysine,[1]; value in parentheses,7.7
same,Relative Light Units (luciferase expression),[2],20927 Relative Light Units
same,rate constant for the conversion of maleamic acid to amine and anhydride,[3],0.087 s⁻¹
same,hemolysis,"[4]; 30 minutes, 37 C",4%
same,hemolysis,[4]; post incubation at pH 5.4 30 seconds,85%
